# pIC50: −log10 of the molar value. Where two headings read alike, the source gives them in different places. *1 amine or outer side, *2 acyl side, *3 side chain or, on linkers, in order; H or OH if unused. Where a SMILES comes first, the peptide text is derived from it. Bridges are numbered along the chain shown (N, C = ends). [ ]: non-standard residue; d: D form. The star is where a group is joined. X122 = CN([C@@H](Cc1cc(Cl)ccc1C1=CCN(C(=O)C(C)(C)C)CC1)C(=O)[*:2])[*:1]; X127 = CN([C@@H](Cc1cc(F)ccc1-c1cnn(S(=O)(=O)C2CC2)c1)C(=O)[*:2])[*:1]; X181 = CN([C@@H](Cc1cc(Cl)ccc1C1=CCN(C(=O)C2CC2)CC1)C(=O)[*:2])[*:1]; NMehhhLys(Me) = CN([C@@H](CCCCCCCN(C)[*:3])C(=O)[*:2])[*:1]; X180 = CN([C@@H](Cc1cc(F)ccc1-c1cnn2c1CCC2)C(=O)[*:2])[*:1]; NMe(hhhLys) = CN([C@@H](CCCCCCCN[*:3])C(=O)[*:2])[*:1]; X143 = CN([C@@H](Cc1cc(F)cc2cccnc12)C(=O)[*:2])[*:1]; cBuCO(3,3-F2-1-CF3) = O=C(C1(C(F)(F)F)CC(F)(F)C1)*; Pro(trans-4-F) = O=C(O)[C@@H]1C[C@@H](F)CN1; Gly(cPr) = N[C@H](C(=O)O)C1CC1
# Key:
# [1] = target: T1, CyclinB1/CDK1 (Homo sapiens, UniProt P14635); test: Fluorescence Polarization (FP) competitive binding assay, Cyclin B1/Cdk1;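 also: fluorescence polarization read after equilibration at room temperature, with IC50 taken from serially diluted dose-response curves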
# T1 construct: purchased Eurofins, discovery 14-450
# [2] = system: NCI-H1048 cells; test: MTT proliferation assay, NCI-H1048; format: cell-based; conditions: 5 days compound exposure, 1:3 serial dilution starting at 10 μM;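 also: Dose-response in 96-well plates over 8 or 10 concentration points, with exposure spanning 3-4 cell doublings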
# [3] = target: T2, CyclinE1/CDK2 (Homo sapiens, UniProt P24864); test: Fluorescence Polarization (FP) competitive binding assay, Cyclin E1/Cdk2;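 also: readings taken after two-hour equilibration at room temperature in HEPES buffer with NaCl, DTT, NP-40 and BSA, IC50 fitted from eight-concentration serial dilution series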
# T2 construct: purchased Eurofins, discovery 14-475
# [4] = system: OVCAR3 cells; test: MTT proliferation assay, OVCAR3; format: cell-based; conditions: 5 days compound exposure, 1:3 serial dilution starting at 10 μM;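 also: compound given as an 8- or 10-point series, one day after plating, with exposure covering roughly 3-4 cell doublings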
# [5] = target: T3, CyclinA2/CDK2 (Homo sapiens, UniProt P20248); test: Fluorescence Polarization (FP) competitive binding assay, Cyclin A2/Cdk2;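 also: plates equilibrated two hours at room temperature before polarization reading, IC50 fitted from eight-concentration compound titration curves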
# T3 construct: purchased CRELUX Protein Services
# [6] = 10 nM Cyclin B1/Cdk1, 2 nM FAM probe; average of 2-3 independent experiments; read-out: Cyclin B FP IC50
# [7] = 10 nM Cyclin E1/Cdk2, 2 nM FAM probe, average of 2-3 independent experiments, read-out: Cyclin E FP IC50
# [8] = 8 nM Cyclin A2/Cdk2, 2 nM FAM probe, average of 2-3 independent experiments, read-out: Cyclin A FP IC50
structure (smiles),measurement,setting,value
"CC(C)C[C@@H]1NC(=O)[C@@H](N(C)C(=O)[C@@H](NC(=O)[C@@H]2C[C@@H](F)CN2C(=O)C2(C(F)(F)F)CC(F)(F)C2)C2CC2)CCCCCCCNC(=O)[C@H](Cc2cc(F)ccc2-c2cnn3c2CCC3)N(C)C1=O [Example 214] ({cBuCO(3,3-F2-1-CF3)}-[Pro(trans-4-F)][Gly(cPr)][NMe(hhhLys)]L[X180]; lactam 3-C)",pIC50,"[1]; read-out: Cyclin B FP IC50; 10 nM Cyclin B1/Cdk1, 2 nM FAM probe; average of 2-3 independent experiments",7.70
same,GI50,[2],10 nM
same,pIC50,[3],6.30
same,GI50,[4],10 nM
same,pIC50,[5],7.30
"CC(C)C[C@@H]1NC(=O)[C@@H](N(C)C(=O)[C@@H](NC(=O)[C@@H]2C[C@@H](F)CN2C(=O)C2(C(F)(F)F)CC(F)(F)C2)C2CC2)CCCCCCCNC(=O)[C@H](Cc2cc(F)ccc2-c2cnn(S(=O)(=O)C3CC3)c2)N(C)C1=O [Example 281] ({cBuCO(3,3-F2-1-CF3)}-[Pro(trans-4-F)][Gly(cPr)][NMe(hhhLys)]L[X127]; lactam 3-C)",pIC50,[1]; [6],7.70
same,GI50,[2],10 nM
same,pIC50,[3]; [7],6.28
same,GI50,[4],20 nM
same,pIC50,[5]; [8],7.40
CC(=O)N1CC=C(c2ccc(F)cc2C[C@H]2C(=O)N(C)CCCCC=CC[C@H](N(C)C(=O)[C@@H](NC(=O)[C@@H]3C[C@@H](F)CN3C(=O)C3(C(F)(F)F)CC(F)(F)C3)C3CC3)C(=O)N[C@@H](CC(C)C)C(=O)N2C)CC1 [Example 39],pIC50,[1]; [6],7.70
same,GI50,[2],90 nM
same,pIC50,[3]; [7],6.03
same,GI50,[4],210 nM
same,pIC50,[5]; [8],7.22
"CC(C)C[C@@H]1NC(=O)[C@@H](N(C)C(=O)[C@@H](NC(=O)[C@@H]2C[C@@H](F)CN2C(=O)C2(C(F)(F)F)CC(F)(F)C2)C2CC2)CCCCCCCNC(=O)[C@H](Cc2cc(Cl)ccc2C2=CCN(C(=O)C3CC3)CC2)N(C)C1=O [Example 97] ({cBuCO(3,3-F2-1-CF3)}-[Pro(trans-4-F)][Gly(cPr)][NMe(hhhLys)]L[X181]; lactam 3-C)",pIC50,[1]; [6],7.70
same,GI50,[2],20 nM
same,pIC50,[3]; [7],5.84
same,GI50,[4],30 nM
same,pIC50,[5]; [8],7.70
CC(=O)N1CC=C(c2ccc(Cl)cc2C[C@H]2C(=O)NCCCC=CCC[C@H](N(C)C(=O)[C@@H](NC(=O)[C@@H]3C[C@@H](F)CN3C(=O)C3(C(F)(F)F)CC(F)(F)C3)C3CC3)C(=O)N[C@@H](CC(C)C)C(=O)N2C)CC1 [Example 267],pIC50,[1]; [6],7.70
same,GI50,[2],50 nM
same,pIC50,[3]; [7],5.71
same,GI50,[4],40 nM
same,pIC50,[5]; [8],7.70
"CC(C)C[C@@H]1NC(=O)[C@@H](N(C)C(=O)[C@@H](NC(=O)[C@@H]2C[C@@H](F)CN2C(=O)C2(C(F)(F)F)CC(F)(F)C2)C2CC2)CCCCCCCN(C)C(=O)[C@H](Cc2cc(Cl)ccc2C2=CCN(C(=O)C(C)(C)C)CC2)N(C)C1=O [Example 144] ({cBuCO(3,3-F2-1-CF3)}-[Pro(trans-4-F)][Gly(cPr)][NMehhhLys(Me)]L[X122]; lactam 3-C)",pIC50,[1]; [6],7.70
same,GI50,[2],70 nM
same,pIC50,[3]; [7],6.08
same,GI50,[4],70 nM
same,pIC50,[5]; [8],7.70
CC(C)C[C@@H]1NC(=O)[C@@H](N(C)C(=O)[C@@H](NC(=O)[C@@H]2C[C@@H](F)CN2C(=O)C2(C(F)(F)F)CC(F)(F)C2)C2CC2)CC=CCCCCN(C)C(=O)[C@H](Cc2cc(F)ccc2-c2cnn(S(C)(=O)=O)c2)N(C)C1=O [Example 87],pIC50,[1]; [6],7.70
same,GI50,[2],50 nM
same,pIC50,[3]; [7],6.05
same,GI50,[4],60 nM
same,pIC50,[5]; [8],6.74
CC(C)C[C@@H]1NC(=O)[C@@H](N(C)C(=O)[C@@H](NC(=O)[C@@H]2C[C@@H](F)CN2C(=O)C2(C(F)(F)F)CC(F)(F)C2)C2CC2)CC=CCCCCNC(=O)[C@H](Cc2cc(Cl)ccc2Oc2ncccn2)N(C)C1=O [Example 152],pIC50,[1]; [6],7.70
same,GI50,[2],500 nM
same,pIC50,[3]; [7],5.72
same,GI50,[4],450 nM
same,pIC50,[5]; [8],5.99
"Cc1nnc(-c2ccc(Cl)cc2C[C@H]2C(=O)NCCCCC=CC[C@H](N(C)C(=O)[C@@H](NC(=O)[C@@H]3C[C@@H](F)CN3C(=O)C3(C(F)(F)F)CC(F)(F)C3)C3CC3)C(=O)N[C@@H](CC(C)C)C(=O)N2C)o1 (single isomer, unassigned) [Example 118-P2]",pIC50,[1]; [6],7.70
same,GI50,[2],50 nM
same,pIC50,[3]; [7],6.52
same,GI50,[4],50 nM
same,pIC50,[5]; [8],7.22
"CC(C)C[C@@H]1NC(=O)[C@@H](N(C)C(=O)[C@@H](NC(=O)[C@@H]2C[C@@H](F)CN2C(=O)C2(C(F)(F)F)CC(F)(F)C2)C2CC2)CCCCCCCN(C)C(=O)[C@H](Cc2cc(F)cc3cccnc23)N(C)C1=O [Example 423] ({cBuCO(3,3-F2-1-CF3)}-[Pro(trans-4-F)][Gly(cPr)][NMehhhLys(Me)]L[X143]; lactam 3-C)",pIC50,[1]; [6],7.70
same,GI50,[2],200 nM
same,pIC50,[3]; [7],6.15
same,GI50,[4],70 nM
same,pIC50,[5]; [8],6.14

# — US20240408169A1 (priority 2023, published 2024)
